Laboratory results: the kinase profiling compilation of Christmann-Franck et al. (2016)

How the values were obtained:
Assay in all cases: radiometric filter-binding kinase assay, Kinase HotSpot
Conditions in all cases: compound 0.5 µM; ATP 10 µM
[1] = target: STK33 (human) (UniProt Q9BYT3)
[2] = target: JAK2 JH1 JH2 (human) (UniProt O60674)
[3] = target: CSNK1D (human) (UniProt P48730)
[4] = target: RPS6KA4 KD2 (human) (UniProt O75676)
[5] = target: AXL (human) (UniProt P30530)
[6] = target: DDR2 (human) (UniProt Q16832)
[7] = target: PHKG2 (human) (UniProt P15735)
[8] = target: TSSK1B (human) (UniProt Q9BXA7)
[9] = target: DYRK2 (human) (UniProt Q92630)
[10] = target: OXSR1 (human) (UniProt O95747)
[11] = target: MUSK (human) (UniProt O15146)
[12] = target: LIMK1 (human) (UniProt P53667)
[13] = target: MERTK (human) (UniProt Q12866)
[14] = target: CSNK1G1 (human) (UniProt Q9HCP0)
[15] = target: WNK3 (human) (UniProt Q9BYP7)
[16] = target: MAPK12 (human) (UniProt P53778)
[17] = target: MAPKAPK3 (human) (UniProt Q16644)
[18] = target: MARK3 (human) (UniProt P27448)
[19] = target: PTK2B (human) (UniProt Q14289)
[20] = target: AKT3 (human) (UniProt Q9Y243)
[21] = target: IRAK1 (human) (UniProt P51617)
[22] = target: CSNK2A2 (human) (UniProt P19784)
[23] = target: HCK (human) (UniProt P08631)
[24] = target: NEK4 (human) (UniProt P51957)
[25] = target: CDK9 CCNK (human) (UniProt O75909+P50750)
[26] = target: MAPK13 (human) (UniProt O15264)
[27] = target: CAMK4 (human) (UniProt Q16566)
[28] = target: FYN (human) (UniProt P06241)
[29] = target: TAOK3 (human) (UniProt Q9H2K8)
[30] = target: NTRK2 (human) (UniProt Q16620)
[31] = target: WEE1 (human) (UniProt P30291)
[32] = target: ACVRL1 (human) (UniProt P37023)
[33] = target: TAOK2 (human) (UniProt Q9UL54)
[34] = target: DAPK1 (human) (UniProt P53355)
[35] = target: MARK2 (human) (UniProt Q7KZI7)
[36] = target: DYRK1A (human) (UniProt Q13627)
[37] = target: CHUK (human) (UniProt O15111)
[38] = target: PRKG2 (human) (UniProt Q13237)
[39] = target: GSK3B (human) (UniProt P49841)
[40] = target: DSTYK (human) (UniProt Q6XUX3)
[41] = target: NTRK3 (human) (UniProt Q16288)
[42] = target: GRK6 (human) (UniProt P43250)

Chain of FYN (human) (P06241 whole entry, looked up): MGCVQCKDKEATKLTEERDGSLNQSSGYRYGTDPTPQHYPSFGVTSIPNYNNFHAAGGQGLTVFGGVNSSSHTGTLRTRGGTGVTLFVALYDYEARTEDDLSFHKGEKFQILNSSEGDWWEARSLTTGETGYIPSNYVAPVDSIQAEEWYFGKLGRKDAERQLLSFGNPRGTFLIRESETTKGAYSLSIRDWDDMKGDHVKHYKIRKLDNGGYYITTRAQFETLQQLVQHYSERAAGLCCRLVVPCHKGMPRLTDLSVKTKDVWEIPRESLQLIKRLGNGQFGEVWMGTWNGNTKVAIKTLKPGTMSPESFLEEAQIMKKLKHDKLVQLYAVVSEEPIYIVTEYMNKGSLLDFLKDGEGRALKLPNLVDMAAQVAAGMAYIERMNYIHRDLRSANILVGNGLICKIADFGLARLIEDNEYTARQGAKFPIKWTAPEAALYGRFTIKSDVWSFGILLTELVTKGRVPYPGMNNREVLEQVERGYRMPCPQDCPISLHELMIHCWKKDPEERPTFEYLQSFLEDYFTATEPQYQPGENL
Chain of NTRK2 (human) (Q16620 whole entry, looked up): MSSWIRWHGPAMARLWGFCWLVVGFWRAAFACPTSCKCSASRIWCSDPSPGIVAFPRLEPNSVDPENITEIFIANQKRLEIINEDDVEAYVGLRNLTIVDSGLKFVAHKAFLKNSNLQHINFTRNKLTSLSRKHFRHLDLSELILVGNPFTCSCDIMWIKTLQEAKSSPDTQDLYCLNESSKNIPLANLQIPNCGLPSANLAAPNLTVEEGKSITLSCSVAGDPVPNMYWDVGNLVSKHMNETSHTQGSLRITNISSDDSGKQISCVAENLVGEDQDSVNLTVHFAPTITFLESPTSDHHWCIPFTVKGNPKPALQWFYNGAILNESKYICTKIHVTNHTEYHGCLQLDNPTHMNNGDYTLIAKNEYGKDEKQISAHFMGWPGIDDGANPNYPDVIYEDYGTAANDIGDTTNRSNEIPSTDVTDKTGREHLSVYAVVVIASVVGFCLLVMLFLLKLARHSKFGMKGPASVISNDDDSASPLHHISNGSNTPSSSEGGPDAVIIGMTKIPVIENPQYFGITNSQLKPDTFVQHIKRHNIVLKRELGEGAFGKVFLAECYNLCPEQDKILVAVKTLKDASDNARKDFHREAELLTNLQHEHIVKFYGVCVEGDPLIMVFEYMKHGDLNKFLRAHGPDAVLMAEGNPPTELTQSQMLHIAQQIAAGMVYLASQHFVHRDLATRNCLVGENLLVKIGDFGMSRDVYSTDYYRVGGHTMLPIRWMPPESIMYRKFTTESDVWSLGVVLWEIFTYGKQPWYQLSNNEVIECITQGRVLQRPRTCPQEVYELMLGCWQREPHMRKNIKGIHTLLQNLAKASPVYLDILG
Chain of DAPK1 (human) (P53355 whole entry, looked up): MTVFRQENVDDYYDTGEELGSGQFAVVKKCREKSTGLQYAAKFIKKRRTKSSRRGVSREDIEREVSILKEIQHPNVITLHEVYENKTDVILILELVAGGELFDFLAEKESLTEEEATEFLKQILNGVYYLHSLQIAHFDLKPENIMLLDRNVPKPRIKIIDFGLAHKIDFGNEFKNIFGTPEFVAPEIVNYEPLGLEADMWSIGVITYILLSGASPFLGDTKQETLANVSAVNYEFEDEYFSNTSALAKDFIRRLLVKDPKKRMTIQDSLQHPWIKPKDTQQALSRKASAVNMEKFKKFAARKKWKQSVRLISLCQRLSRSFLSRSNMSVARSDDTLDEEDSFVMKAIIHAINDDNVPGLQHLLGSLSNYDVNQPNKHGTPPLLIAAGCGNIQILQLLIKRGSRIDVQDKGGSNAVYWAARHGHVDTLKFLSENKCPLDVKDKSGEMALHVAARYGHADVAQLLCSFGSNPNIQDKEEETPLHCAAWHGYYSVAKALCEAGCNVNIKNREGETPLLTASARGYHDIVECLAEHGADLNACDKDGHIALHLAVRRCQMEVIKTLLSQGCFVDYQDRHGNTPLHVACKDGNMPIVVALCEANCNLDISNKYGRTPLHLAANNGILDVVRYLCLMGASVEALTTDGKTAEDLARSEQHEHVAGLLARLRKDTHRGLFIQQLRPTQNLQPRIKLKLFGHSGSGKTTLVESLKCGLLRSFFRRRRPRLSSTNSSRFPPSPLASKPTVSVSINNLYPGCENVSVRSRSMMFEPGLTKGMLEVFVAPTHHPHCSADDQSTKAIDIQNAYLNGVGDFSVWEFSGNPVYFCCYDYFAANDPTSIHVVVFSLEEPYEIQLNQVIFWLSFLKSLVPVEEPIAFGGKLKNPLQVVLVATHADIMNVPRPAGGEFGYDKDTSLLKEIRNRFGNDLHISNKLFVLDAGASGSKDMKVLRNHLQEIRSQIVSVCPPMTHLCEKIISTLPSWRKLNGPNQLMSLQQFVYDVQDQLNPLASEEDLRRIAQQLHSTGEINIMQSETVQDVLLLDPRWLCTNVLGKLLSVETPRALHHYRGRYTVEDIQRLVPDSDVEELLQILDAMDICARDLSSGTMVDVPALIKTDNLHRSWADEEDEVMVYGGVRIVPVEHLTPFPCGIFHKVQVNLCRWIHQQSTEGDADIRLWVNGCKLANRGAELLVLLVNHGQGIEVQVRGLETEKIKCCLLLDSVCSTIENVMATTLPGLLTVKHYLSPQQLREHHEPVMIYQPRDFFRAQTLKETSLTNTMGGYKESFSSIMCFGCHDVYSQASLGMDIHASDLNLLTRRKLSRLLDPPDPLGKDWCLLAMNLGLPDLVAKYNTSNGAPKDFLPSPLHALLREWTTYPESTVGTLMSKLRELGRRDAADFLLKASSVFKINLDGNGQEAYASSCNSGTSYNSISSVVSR
Chain of TSSK1B (human) (Q9BXA7 whole entry, looked up): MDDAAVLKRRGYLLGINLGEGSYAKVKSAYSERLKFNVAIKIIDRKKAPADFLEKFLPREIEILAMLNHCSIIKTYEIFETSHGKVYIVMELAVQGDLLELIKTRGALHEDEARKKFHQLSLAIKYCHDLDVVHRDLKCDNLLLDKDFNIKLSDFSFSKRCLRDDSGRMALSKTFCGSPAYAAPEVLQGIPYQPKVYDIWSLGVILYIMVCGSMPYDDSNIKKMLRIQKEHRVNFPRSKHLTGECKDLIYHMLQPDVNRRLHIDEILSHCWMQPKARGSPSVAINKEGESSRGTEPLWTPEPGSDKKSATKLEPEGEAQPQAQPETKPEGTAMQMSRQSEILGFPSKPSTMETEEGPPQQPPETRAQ
Chain of AXL (human) (P30530 whole entry, looked up): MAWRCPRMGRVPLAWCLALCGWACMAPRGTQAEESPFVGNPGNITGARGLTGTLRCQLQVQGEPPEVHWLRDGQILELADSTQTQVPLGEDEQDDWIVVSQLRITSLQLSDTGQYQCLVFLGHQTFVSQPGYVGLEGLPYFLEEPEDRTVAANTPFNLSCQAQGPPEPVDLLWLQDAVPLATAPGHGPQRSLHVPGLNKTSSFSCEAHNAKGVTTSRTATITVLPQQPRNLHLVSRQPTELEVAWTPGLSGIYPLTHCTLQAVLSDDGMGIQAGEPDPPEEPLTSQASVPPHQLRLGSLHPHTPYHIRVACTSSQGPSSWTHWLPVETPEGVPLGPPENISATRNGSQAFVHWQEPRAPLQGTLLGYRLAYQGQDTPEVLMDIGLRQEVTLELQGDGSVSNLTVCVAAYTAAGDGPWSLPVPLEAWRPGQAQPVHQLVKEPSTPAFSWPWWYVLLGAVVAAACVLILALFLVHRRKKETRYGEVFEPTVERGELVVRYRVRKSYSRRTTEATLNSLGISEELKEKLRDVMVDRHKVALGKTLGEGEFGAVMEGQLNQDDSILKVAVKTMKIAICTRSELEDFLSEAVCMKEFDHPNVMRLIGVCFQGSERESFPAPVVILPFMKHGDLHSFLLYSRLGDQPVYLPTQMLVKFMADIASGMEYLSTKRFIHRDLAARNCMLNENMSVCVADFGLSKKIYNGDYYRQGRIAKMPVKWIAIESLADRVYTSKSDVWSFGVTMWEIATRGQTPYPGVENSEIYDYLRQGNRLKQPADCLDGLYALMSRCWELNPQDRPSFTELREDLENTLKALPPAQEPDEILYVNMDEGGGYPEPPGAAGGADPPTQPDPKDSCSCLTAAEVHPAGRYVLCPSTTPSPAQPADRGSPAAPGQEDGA
Chain of PHKG2 (human) (P15735 whole entry, looked up): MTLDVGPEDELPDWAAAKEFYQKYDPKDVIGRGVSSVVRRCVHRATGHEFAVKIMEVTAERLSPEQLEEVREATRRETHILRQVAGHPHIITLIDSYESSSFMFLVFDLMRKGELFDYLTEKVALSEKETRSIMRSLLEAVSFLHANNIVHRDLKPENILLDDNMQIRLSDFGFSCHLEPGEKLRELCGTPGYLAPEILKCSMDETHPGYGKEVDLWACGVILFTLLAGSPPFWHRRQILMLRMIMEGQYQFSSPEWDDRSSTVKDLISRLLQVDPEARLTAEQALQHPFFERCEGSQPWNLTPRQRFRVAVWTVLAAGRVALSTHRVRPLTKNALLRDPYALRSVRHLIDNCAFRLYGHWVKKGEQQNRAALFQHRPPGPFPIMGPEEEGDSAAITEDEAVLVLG
Chain of MAPKAPK3 (human) (Q16644 whole entry, looked up): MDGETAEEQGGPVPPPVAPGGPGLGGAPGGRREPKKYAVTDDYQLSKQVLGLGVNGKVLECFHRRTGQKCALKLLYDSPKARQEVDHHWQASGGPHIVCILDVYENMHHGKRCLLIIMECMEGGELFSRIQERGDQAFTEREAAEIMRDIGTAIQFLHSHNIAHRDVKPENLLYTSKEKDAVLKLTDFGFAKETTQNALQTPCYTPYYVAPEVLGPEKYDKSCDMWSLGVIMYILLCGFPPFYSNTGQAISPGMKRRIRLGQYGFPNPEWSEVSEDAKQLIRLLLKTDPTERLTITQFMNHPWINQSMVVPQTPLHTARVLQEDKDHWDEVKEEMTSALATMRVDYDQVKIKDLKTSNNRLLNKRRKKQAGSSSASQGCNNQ

Compound `CO[C@@H]1[C@H](N(C)C(=O)c2ccccc2)C[C@H]2O[C@]1(C)n1c3ccccc3c3c4c(c5c6ccccc6n2c5c31)C(=O)NC4` has a residual activity [1] of 46.4%, a residual activity [2] of 8.94% and a residual activity [3] of 101%. For the same compound, the residual activity [4] was 16.8%, the residual activity [5] was 106% and the residual activity [6] was 380%. For the same compound, the residual activity [7] was 79.7%, the residual activity [8] was 8.24% and the residual activity [9] was 108%. For the same compound, the residual activity [10] was 98.2%, the residual activity [11] was 44.6% and the residual activity [12] was 19.6%. The residual activity [13] was 78.7%, the residual activity [14] was 103% and the residual activity [15] was 91.4%. For the same compound, the residual activity [16] was 95.8%, the residual activity [17] was 91.5% and the residual activity [18] was 4.76%. The residual activity [19] was 58.2%, the residual activity [20] was 55.1% and the residual activity [21] was 86.3%. For the same compound, the residual activity [22] was 87.8%, the residual activity [23] was 14.9% and the residual activity [24] was 97.6%. It also gave a residual activity [25] of 71%, a residual activity [26] of 104% and a residual activity [27] of 103%. It also gave a residual activity [28] of 34%, a residual activity [29] of 38.1% and a residual activity [30] of 12.8%. The residual activity [31] was 89.3%, the residual activity [32] was 94.3% and the residual activity [33] was 86.2%. The residual activity [34] was 84%.

`Cc1cccc(-c2nc(C(C)(C)C)[nH]c2-c2ccc3c(c2)OCO3)n1` showed a residual activity [1] of 89%, a residual activity [3] of 63.4% and a residual activity [35] of 90%. It also gave a residual activity [5] of 101%, a residual activity [6] of 98.3% and a residual activity [7] of 107%. It also gave a residual activity [36] of 98.4%, a residual activity [37] of 108% and a residual activity [8] of 103%. For the same compound, the residual activity [9] was 108%, the residual activity [10] was 103% and the residual activity [38] was 95.9%. For the same compound, the residual activity [11] was 99.1%, the residual activity [12] was 86.2% and the residual activity [13] was 82%. The residual activity [39] was 96.8%, the residual activity [14] was 79.4% and the residual activity [15] was 94.1%. For the same compound, the residual activity [16] was 95.7%, the residual activity [17] was 94.1% and the residual activity [18] was 73.9%. The residual activity [40] was 89.1%, the residual activity [19] was 91.3% and the residual activity [20] was 94.7%. For the same compound, the residual activity [21] was 118%, the residual activity [22] was 83.6% and the residual activity [23] was 90.7%. It also gave a residual activity [24] of 94.9%, a residual activity [25] of 106% and a residual activity [41] of 92.4%. It also gave a residual activity [42] of 101%, a residual activity [26] of 107% and a residual activity [27] of 100%. For the same compound, the residual activity [28] was 108%, the residual activity [29] was 102% and the residual activity [30] was 96.4%. The residual activity [31] was 81.5%, the residual activity [32] was 127% and the residual activity [33] was 87.6%. It also gave a residual activity [34] of 102%.

In the case of `COc1cc(Nc2c(C#N)cnc3cc(OCCCN4CCN(C)CC4)c(OC)cc23)c(Cl)cc1Cl`, the residual activity [1] is reported as 63.5%, the residual activity [2] is reported as 97.4% and the residual activity [3] is reported as 10.9%. For the same compound, the residual activity [35] was 99.9%, the residual activity [4] was 101% and the residual activity [5] was 37.6%. The residual activity [6] was 105%, the residual activity [7] was 103% and the residual activity [36] was 99.4%. It also gave a residual activity [37] of 98.1%, a residual activity [8] of 79.2% and a residual activity [9] of 104%. The residual activity [10] was 100%, the residual activity [38] was 109% and the residual activity [11] was 81.7%. For the same compound, the residual activity [12] was 96.4%, the residual activity [13] was 28.9% and the residual activity [39] was 99.9%. For the same compound, the residual activity [14] was 95.7%, the residual activity [15] was 91.8% and the residual activity [16] was 99.9%. The residual activity [17] was 98.2%, the residual activity [18] was 65.4% and the residual activity [40] was 104%. For the same compound, the residual activity [19] was 32.6%, the residual activity [20] was 90.7% and the residual activity [21] was 91.3%. For the same compound, the residual activity [22] was 108%, the residual activity [23] was 11.9% and the residual activity [24] was 32.6%. It also gave a residual activity [25] of 102%, a residual activity [42] of 99.5% and a residual activity [26] of 91.2%. The residual activity [27] was 90.7%, the residual activity [28] was 29.4% and the residual activity [29] was 71.3%. For the same compound, the residual activity [30] was 69.2%, the residual activity [31] was 40.5% and the residual activity [32] was 67.6%. The residual activity [33] was 65.4% and the residual activity [34] was 106%.

With `COc1ccc2c(c1)/C(=C/c1cnc[nH]1)C(O)=N2` the residual activity [1] was 74.7%, the residual activity [2] was 88.9% and the residual activity [3] was 93.6%. It also gave a residual activity [35] of 50%, a residual activity [4] of 76.9% and a residual activity [5] of 94.3%. For the same compound, the residual activity [6] was 95.5%, the residual activity [7] was 88.3% and the residual activity [36] was 70.4%. For the same compound, the residual activity [37] was 110%, the residual activity [8] was 101% and the residual activity [9] was 76.9%. For the same compound, the residual activity [10] was 97.3%, the residual activity [38] was 99.7% and the residual activity [11] was 78.3%. For the same compound, the residual activity [12] was 89.6%, the residual activity [13] was 84.7% and the residual activity [39] was 35.4%. It also gave a residual activity [14] of 106%, a residual activity [15] of 88.5% and a residual activity [16] of 95.5%. The residual activity [17] was 102%, the residual activity [18] was 56.2% and the residual activity [40] was 106%. It also gave a residual activity [20] of 101%, a residual activity [21] of 101% and a residual activity [22] of 77.5%. For the same compound, the residual activity [23] was 96.1%, the residual activity [24] was 96% and the residual activity [25] was 59.4%. For the same compound, the residual activity [41] was 9.35%, the residual activity [42] was 85.2% and the residual activity [26] was 102%. For the same compound, the residual activity [27] was 97.4%, the residual activity [28] was 81.2% and the residual activity [29] was 44%. The residual activity [30] was 30.1%, the residual activity [31] was 94.2% and the residual activity [32] was 98.7%. It also gave a residual activity [33] of 81.8% and a residual activity [34] of 105%.

In the case of `C[C@@H]1CCN(C(=O)CC#N)C[C@@H]1N(C)c1ncnc2[nH]ccc12`, the residual activity [1] is reported as 97.8%, the residual activity [35] is reported as 91.8% and the residual activity [4] is reported as 105%. The residual activity [5] was 97.7%, the residual activity [6] was 104% and the residual activity [7] was 98.6%. It also gave a residual activity [36] of 102%, a residual activity [37] of 95% and a residual activity [8] of 85.1%. It also gave a residual activity [9] of 112%, a residual activity [10] of 98.2% and a residual activity [38] of 106%. The residual activity [11] was 103%, the residual activity [12] was 82% and the residual activity [13] was 114%. It also gave a residual activity [39] of 99.6%, a residual activity [14] of 101% and a residual activity [15] of 104%. For the same compound, the residual activity [17] was 100%, the residual activity [18] was 78.6% and the residual activity [40] was 98.4%. It also gave a residual activity [20] of 85.8%, a residual activity [21] of 93.9% and a residual activity [22] of 96.6%. The residual activity [23] was 88.3%, the residual activity [24] was 96% and the residual activity [25] was 102%. It also gave a residual activity [41] of 90%, a residual activity [42] of 101% and a residual activity [27] of 96.3%. It also gave a residual activity [29] of 94.9%, a residual activity [30] of 97.1% and a residual activity [31] of 97.7%. The residual activity [32] was 100%, the residual activity [33] was 100% and the residual activity [34] was 109%.
